Reference: the NIST ThermoML archive (doi:10.1016/j.jct.2011.09.001)

Experiments:
[1] = 101 kPa, Liquid; for speed of sound: Sing-around technique in a fixed-path interferometer; for mass density: Vibrating tube method
[2] = refractive index (Na D-line) (dimensionless); conditions: 101.33 kPa, Liquid, Standard Abbe refractometry
[3] = refractive index (Na D-line) (dimensionless); xn = mol fraction of the nth substance listed; conditions: 101 kPa, Liquid, Standard Abbe refractometry, x2 = 0
[4] = xn = mol fraction of the nth substance listed; conditions: 101 kPa, Liquid, x2 = 0; for speed of sound: Sing-around technique in a fixed-path interferometer; for mass density: Vibrating tube method

c1ccc2c(c1)CCCC2 [1,2,3,4-tetrahydronaphthalene]
Conditions | mass density, [1] [kg/m3] | refractive index, [2] | speed of sound, [1] [m/s]
293.15 K | 969.5 | 1.5414 | 1489.5
303.15 K | 961.6 | 1.5367 | 1450.1
313.15 K | 953.7 | 1.5321 | 1411.5
323.15 K | 945.7 | 1.5274 | 1373.6
333.15 K | 937.8 | 1.5228 | 1336.4
343.15 K | 929.8 | 1.518 | 1299.8

CCCCCCCCCC [decane]
Conditions | mass density, [1] [kg/m3] | refractive index, [2] | speed of sound, [1] [m/s]
293.15 K | 730.1 | 1.4123 | 1254.6
303.15 K | 722.6 | 1.4079 | 1215.1
313.15 K | 714.9 | 1.4033 | 1176.1
323.15 K | 707.3 | 1.3987 | 1137.6
333.15 K | 699.5 | 1.3942 | 1099.8
343.15 K | 691.8 | 1.3893 | 1062.3

CCCCCCCCCC [decane] + c1ccc2c(c1)CCCC2
Conditions | mass density, [4] [kg/m3] | refractive index, [3] | speed of sound, [4] [m/s]
293.15 K | 730.1 | 1.4123 | 1254.6
303.15 K | 722.6 | 1.4079 | 1215.1
313.15 K | 714.9 | 1.4033 | 1176.1
323.15 K | 707.3 | 1.3987 | 1137.6
333.15 K | 699.5 | 1.3942 | 1099.8
343.15 K | 691.8 | 1.3893 | 1062.3
